Converted amounts (≈) assume the structure as drawn. One block for each molecule: values may come before it.
Columns and labels:
[1] = Measurement of the solubility of AZDN in the organic binder; conditions: 20 °C, organic solvent or mixture, thermodynamic from solid
Method: (§1) The bottle is shaken for a period of between 1 h and 10 h, for example 6 h. After decantation, said binder is analysed to determine its content of compound of formula (I): this content corresponds to the solubility of the azo compound in the organic binder in g/L. The analysis is carried out by gas chromatography.
(§2) The bottle is shaken for approximately 6 h. After decantation, the organic binder is analysed to determine its AZDN concentration. The analysis is carried out by gas chromatography with an injector temperature set at 220° C. (under these conditions, AZDN is essentially transformed into tetramethylsuccinonitrile in the injector).

physchem [2] = conditions: 20 °C, organic solvent or mixture, thermodynamic from solid
Method: as §1, §2

[3] = Granule dissolution test in acetone; type: physicochemical; conditions: 13 g AZDN in 100 ml acetone, room temperature, 100 rpm, visual
Method: A granule dissolution test is carried out at room temperature. A glass Erlenmeyer flask fitted with a magnetic stirring bar is placed on a magnetic stirrer. With the stirring stopped, 13 g of AZDN are introduced into the Erlenmeyer flask. 100 ml of acetone are then introduced quickly and stirring is started (100 rpm). The time taken until, visually, undissolved AZDN crystals are no longer seen is recorded.
Commercial recrystallized AZDN (130-257-438 microns/dv 10-50-90), AZDN granules prepared and dried as obtained above, and the dry powdered AZDN used in Example 1 are compared.

physchem [4] = test: physchem
Excerpt: The aqueous phase is decanted and then analysed by gas chromatography in order to determine the binder content in g/L, corresponding to its solubility.
The aqueous phase is decanted and then analysed by gas chromatography to determine the concentration of organic binder.

[5] = water, 20 °C, thermodynamic from solid
[6] = 20 °C, water, thermodynamic from solid

Structure (SMILES): CC(C)(C#N)N=NC(C)(C)C#N [AZDN, 2,2′-azobis(isobutyronitrile)]
solubility at 6 h ([1]; isobutyl acetate): 59 mg/mL (≈ 359 mM)
solubility at 6 h ([1]; meta-xylene): 25 mg/mL (≈ 152 mM)
solubility at 6 h ([1]; methoxycyclopentane (CPME)): 30.5 mg/mL (≈ 186 mM)
solubility at 6 h ([1]; methyl isobutyl ketone): 75.5 mg/mL (≈ 460 mM)
solubility at 6 h ([1]; methyl pentyl ketone): 45 mg/mL (≈ 274 mM)
solubility at 6 h ([1]; toluene): 60 mg/mL (≈ 365 mM)
solubility at 6 h (physchem [2]; diethyl carbonate): 85 mg/mL (≈ 518 mM)
solubility at 6 h (physchem [2]; n-butyl acetate): 59 mg/mL (≈ 359 mM)

Structure (SMILES): CC(C)(C#N)N=NC(C)(C)C#N [Dry AZDN powder, 2,2′-azobis(isobutyronitrile)]
Dissolution time [3]: 15 s

Structure (SMILES): CC(C)(C#N)N=NC(C)(C)C#N [Recrystallized AZDN, 2,2′-azobis(isobutyronitrile), reference compound]
Dissolution time [3]: 35 s

Structure (SMILES): CCCCOC(C)=O [n-Butyl acetate]
solubility at 1 h (physchem [4]; [6]): 7 mg/mL

Next, values leading:

solubility at 1 h (physchem [4]; [5]): 7 mg/mL
Structure (SMILES): CC(=O)OCC(C)C [Isobutyl acetate]

solubility at 1 h (physchem [4]; [5]): 12.5 mg/mL (≈ 125 mM)
Structure (SMILES): COC1CCCC1 [Methoxycyclopentane]

solubility at 1 h (physchem [4]; [5]): 20 mg/mL (≈ 200 mM)
Structure (SMILES): CC(=O)CC(C)C [Methyl isobutyl ketone]

solubility at 1 h (physchem [4]; [5]): 5 mg/mL (≈ 43.8 mM)
Structure (SMILES): CCCCCC(C)=O [Methyl pentyl ketone]

solubility at 1 h (physchem [4]; [6]): < 0.5 mg/mL
Structure (SMILES): Cc1cccc(C)c1 [meta-Xylene]
